# How the values were obtained:
# Assay type in all cases: physicochemical
# [1] = Preparation of compositions (Example 3): appearance and stability of the solution; conditions: heated at 175° C.
# [2] = Increase in solubility of active compounds in the present compositions
# Source text: It is advantageous to take measures to increase the solubility of an active compound or active compounds within a composition that includes components that serve as excipients such that true solubilization of the compound(s) occurs and the activity of the active compounds are retained upon transition to the vapor phase. The present disclosure is based on the result that the solubility of active compounds can be increased by surprising and unexpected amounts.
# [3] = Trans resveratrol solubility in stock with solvents and co-solutes (incremental addition, heat gun); conditions: solution 2 (3.5 ml pure carvone) and solution 4 (3 ml carvone+0.5 ml ethanol), without heating
# Description: The initial approach was to test non polar solvents and their effectiveness with ethanol. This included pure stock as a control, carvone, and combinations of those solvents with ethanol. The following solvents were prepared: Control—3.5 ml of pure stock, 1-1.75 ml of stock+1.75 ml of carvone+0.2 ml of 0.01 mol NaOH, 2-3.5 ml of pure carvone, 3-3 ml of stock+0.5 ml of ethanol, 4-3 ml of carvone+0.5 ml of ethanol.
# Solution 1 became biphasic and cloudy. The control and solution 4 have approximately the same solubility of TR. […] Solvent was added until the TR was dissolved which occurred at 60 mg/ml of stock. This original solution was split into 5 test tubes of 1 ml each with about 0.06 g of TR.
# The following solutions were made: 1—adding […] of carvone (equimolar with TR, 0.000263 mol of each) 2—adding 0.175 ml of ethanol 3-0.235 ml of carvone and 0.1 ml of ethanol. Solution 1 became cloudy because the carvone is immiscible with the stock. Several attempts to fix this were made using of ethanol and B3 amide as hydrotropes but it had no effect.
# Next co-solutes were used along with the TR in stock solution. 0.000263 mol of the following were dissolved along with TR in 3 ml stock: 1-niacin, 2-caffeine, 3-gallic acid, 4-salicylic acid, 5-thiamine, 6-niacinamide, and 7-pantothenic acid. Two additional samples were prepared of 0.01 g biotin (8) and 0.04 g of -pyridoxine HCl (9). Each solution consisted of the stated amount of co-solute and 3 ml of stock. The following amounts of TR (which was added incrementally (30-40 mg) and heated for 3-4 minutes by heat gun) created the following:
# To conduct further testing 0.5 ml of ethanol was added to the solutions with niacin, biotin, thiamine, and salicylic acid. The successful B3 amide solution was split into two solutions of (1.625 and 1.375 ml) with 0.25 ml of ethanol being added to the 1.375 ml solution. The results were as follows:
# There was also testing with multiple solutes in 3 ml of stock:
# Currently piperazine hexahydrate is being tested as it is another hydrotrope. […] It may work better with other co-solutes or ethanol.
# [4] = Folate solubility in glycerin/2,3 butane diol stock compositions with co-solutes (incremental addition, heat gun, stirring); conditions: 2.5 ml stock+0.15 ml water+0.15 ml ethanol+0.01135 g beta-cyclodextrin+0.0182 g biotin/mannitol+0.00441 folate, without heating
# [5] = as above
# Description: Folate. Folate and biotin are the two most difficult to dissolve B vitamins. Folate solubility enhancement was provided by addition of beta-cyclodextrin.
# The solubility enhancement from mannitol/biotin alone was tested next. […] This is major improvement over most polar solvents (0.0016 g/L of water at 25° C.).
# First the mannitol/biotin powder was mixed with 0.004 g of folate. This was added to the test tube followed by the liquid. It was stirred vigorously. Then it was heated with a heat gun until clear and no folate was suspended. […] All the liquid was moved to another test tube and the precipitate remained. Then folate was incrementally added (about 1 mg) and the solution was stirred, followed by heating** until it became clear. It would take at least 3 minutes of heating for it to become clear but as more folate was added, at least 4 minutes of heating were needed. This is how the original solution was formed. Over the course of several days there was no further precipitate or increase in viscosity. ** all heating was done with the yellow heat gun on the lowest setting (240° F.)
# While heating and stirring the lid popped off and 0.75 ml of solution spilled out. Even accounting for folate lost in the spill, currently at least 8 mg of folate have been dissolved in 2.75 ml and the solution is completely clear. Heating the solution caused the lid to pop so it must be removed after about 1 minute and 30 seconds of heating prior to any further heating. It is also crucial for the solution to have been flipped upside down, preferably while warm. The solution must not be heated while flipped as this may cause a spill.
# The original solution still has less much viscosity but also a slightly lower concentration of folate. It appears that somewhere beyond 8 mg folate/[…] of solution it becomes supersaturated, resulting in a thick gel upon settling and cooling. […] As long as supersaturation followed by settling is avoided, the solution will remain liquid. Another option is to study the effect of precipitation inhibitors or the sonicator to further boost solubility without increasing viscosity.
# Testing was also done with only stock, stock+water and stock+ethanol but having both water and ethanol is crucial to the process. […] Despite having separated the liquid from the precipitate which was nearly all biotin/mannitol, the powder still played a role in improving folate solubility. […] The following composition (3 ml stock+0.25 ml water+0.25 ml ethanol+0.009 g of biotin) dissolved 11.2 mg of folate but became extremely viscous.
# According to research on drug solubility there is a class of molecules known as hydrotropes (also known as chaotropes, […]). They reduce hydrophobic forces between non-polar solutes in polar solvents. One such molecule is niacinamide (vitamin B3 amide). These hydrotropes are planar and are either very polar or have nonpolar and polar sides like surfactants but shorter. This experiment was repeated with niacinamide as a cosolute and with a combination of B3 amide and Biotin. The biotin and B3 amide were added along with 4 mg of folate (and crushed together) wet into dry to the solution. The remaining folate was added incrementally along with heating and stirring. […] (2.5 ml stock+0.5 ml water+0.5 ml ethanol+0.0221 g of B3 amide) dissolved approximately 11 mg of folate and a small amount of precipitate. (2.5 ml stock+0.5 ml water+0.5 ml ethanol+0.0221 g of B3 amide+0.090 g pure biotin) dissolved approximately 11.4 mg of folate without precipitate. Unfortunately both solutions were extremely viscous after a few days.
# Eventually the B3 amide and biotin cosolute solution was prepared using “reverse stock” instead of regular with the goal of lowering viscosity. The reverse stock is a solution of 3:7 mol glycerin and 2,3 butane diol. Initially this made folate precipitate so additional glycerin was added to achieve a 1:1 mol ratio of glycerin to 2,3 butane diol.
# [6] = Solubility of piracetam and pantothenic acid in stock; conditions: glycerin/2,3 butane diol stock, organic solvent or mixture
SMILES,"appearance of composition ([1]; 8 mg folic acid, 22.1 mg nicotinamide, 4.7 mg biotin in 3.5 ml (0.5 mol glycerin/0.5 mol propylene glycol), 0.5 ml water, 0.5 ml ethanol, flavors)",increase in solubility [2],dissolution in carvone solvents [3],appearance of solution [4],"amount of folate dissolved ([5]; 0.0221 g B3 amide, 0.0047 mg biotin, 3.5 ml equimolar glycerin and 2,3 butane diol, 0.5 ml water, 0.5 ml ethanol) [mg]","amount of folate dissolved ([5]; 2.5 ml stock+0.5 ml water+0.5 ml ethanol+0.0221 g B3 amide+0.090 g pure biotin, without precipitate)","amount of folate dissolved ([5]; 2.5 ml stock+0.5 ml water+0.5 ml ethanol+0.0221 g B3 amide, small amount of precipitate)",amount of folate dissolved ([5]; 3 ml stock+0.25 ml water+0.25 ml ethanol+0.009 g biotin) [mg],amount of folate dissolved ([5]; 3 ml stock+0.25 ml water+0.25 ml ethanol+0.0182 g biotin/mannitol),"amount of folate dissolved ([5]; liquid only part of the same solution, no mannitol/biotin powder) [mg]","amount of folate dissolved ([5]; repeat experiment, in 2.75 ml of the biotin/mannitol solution, completely clear)",concentration beyond which solution becomes supersaturated (thick gel on settling and cooling) ([5]; stock+water+ethanol+biotin/mannitol solution),solubility [6] [mg/mL],"appearance of composition ([1]; 0.2 grams piracetam in 1.5 ml stock, 2.0 ml fruit flavored vodka, 0.1 ml flavored glycerin)"
"Nc1nc2ncc(CNc3ccc(C(=O)N[C@@H](CCC(=O)O)C(=O)O)cc3)nc2c(=O)[nH]1 [folate, folic acid]",clear solution with flavor,"≤ 15,000%",easily dissolved,clear with some orange (folate) precipitate on the bottom of the vial,9,approximately 11.4 mg,approximately 11 mg,11.2,approximately 0.008 g,< 1.6,at least 8 mg,> 8 mg folate/3.5 ml of solution,,
"NC(=O)CN1CCCC1=O [Piracetam, piracetam]",,,,,,,,,,,,,36.5,clear solution with flavor

# — patent US20180228897A1, “Compositions for Vapor Phase Delivery of Active Compounds, Methods of Making and Using Same, and Kits Comprising Same” (Atmovita, LLC, priority 2015, published 2018)
